Data as given in patent US20100136541A1, “IDENTIFICATION AND VERIFICATION OF METHYLATION MARKER SEQUENCES” (Siemens Healthcare Diagnostics Inc., priority 2003, published 2010).

Experiments:
GPX3 CpG sites = test: Bisulfite sequencing of CpG sites, cell lines treated vs. untreated; format: cell-based, human; set-up: unit not given here; conditions: cell line pool
Description: (§1) Samples: Paired tumor and adjacent normal tissues from twelve colorectal cancer patients were collected under institutional review board (IRB) approval with patient consent. Tissues were flash frozen in LN2 and stored at −80° C. prior to DNA extraction. All tissues were blinded. Cell lines: A panel of five colorectal cancer cell lines was used. Cells were grown to ˜50% confluence in the appropriate culture medium prior to treatment with 5-aza-2′-deoxycytidine. Optimal concentrations and incubation times (Table 4) were determined by assaying for reduction of p16 promoter methylation using MSP. Cells were harvested, pelleted by centrifugation, and washed twice in Hanks buffered saline solution. Cell pellets were stored at −80° C. Control cells were maintained simultaneously without 5-aza-2′-deoxycytidine treatment. DNA extraction: DNA was purified from tissues and cell lines using the QIAGEN DNeasy® Tissue Kit. Approximately 25-35 mg of each tissue was pulverized under liquid nitrogen before extraction. Elution volume for tissues was 2004. A final volume of […] of cell line DNA was extracted from 15 to 254 of each packed cell pellet (between 10^6-10^7 cells). Purified DNA was stored at −20° C. Bisulfite modification: Modification was performed according to the Frommer method (See Frommer M, et al., PNAS, 89: 1827-1831 (1992).) One μg genomic DNA was diluted into 50 μl with distilled H2O, 5.5 μl of 2M NaOH was added, and the mixture incubated at 37° C. for 10 minutes (to create single stranded DNA). Thirty μl of freshly prepared 10 mM hydroquinone (Sigma) was added to each tube. Five hundred twenty μl of freshly prepared 3M sodium bisulfite (Sigma S-8890), pH 5.0 was then added. Reagents were thoroughly mixed and then covered with mineral oil and incubated at 50° C. for 16 hours. After removing the oil, 1 ml of Wizard DNA Cleanup Resin (Promega A7280) was added to each tube prior to applying the mixture to miniprep column in the DNA Wizard Cleanup kit. The column was washed with 2 ml of 80% isopropanol, and eluted with 50 μl of heated water (60-70° C.). 5.5 μl of 3 M NaOH to was added to each tube, and incubated at room temperature for 5 minutes. Then 1 μl glycogen was added as carrier, 33 μl of 10 M NH4Ac, and 3 volumes of ethanol for DNA precipitation. The pellet was spun down and washed with 70% ethanol, dried and resuspended in 20 μl water. In some instances, the EZ DNA Methylation Kit (Zymo Research) which uses a simplified version of the Frommer method was used. In these cases, 1 μg of genomic DNA was denatured in 0.3M NaOH for 15 minutes at 37° C. followed by incubation at 50° C. for 16 hours in 0.5 mM hydroquinone and a saturated solution of sodium bisulfite at pH 5. Modified DNA was bound to the Zymo column membrane, then desulfonated with 0.3M NaOH for 15 minutes at room temperature. DNA was washed and resuspended with 50 μL 10 mM Tris-HCl-0.1 mM EDTA, pH 7.5 and stored at −20° C. The bisulfite reaction results in conversion of an unmethylated cytosine to uracil. Methylated cytosine remains unchanged after the bisulfite reaction. The resulting bisulfite modified DNA is single stranded. PCR amplification for sequencing: Primers were designed to amplify both methylated and unmethylated fragments of DNA (Table 5). Five μL of modified DNA ( 1/10 of modification reaction) was amplified first in a 254, reaction volume containing 10 mM Tris-HCl pH8.3, 50 mM KCl, 1.5 mM to 2 mM MgCl2, (Applied Biosystems), 0.25 mM each dNTP, 0.5 unit AmpliTaq (Applied Biosystems), and sequencing primers (each at 200 nM). Cycling conditions were 10 minutes at 95° C., 40 cycles of 30 seconds at 95° C., 30 seconds at 54-62° C., 30 seconds at 72° C., subsequently followed by extension for 5 minutes at 72° C.
(§2) Reaction products were purified either by the shrimp-alkaline phosphatase-Exol standard method or on the Qiagen Qiaquick PCR clean-up column and eluted in 30 μL 10 mM Tris-HCl, pH8.5. […]

SCNN1B CpG sites = test: as above; format: cell-based, human; set-up: unit not given here
Description: as §1, §2

Nc1ncn([C@H]2C[C@H](O)[C@@H](CO)O2)c(=O)n1 [5-aza-2′-deoxycytidine]
Sequencing results for GPX3, CpG site #25 (GPX3 CpG sites): 70 | Sequencing results for GPX3, CpG site #27 (GPX3 CpG sites): 100 | Sequencing results for GPX3, CpG site #31 (GPX3 CpG sites): 67 | Sequencing results for GPX3, CpG site #49 (GPX3 CpG sites): 70 | Sequencing results for GPX3, CpG site #56 (GPX3 CpG sites): 98 | Sequencing results for GPX3, CpG site #75 (GPX3 CpG sites): 72 | Sequencing results for GPX3, CpG site #84 (GPX3 CpG sites): 77 | Sequencing results for GPX3, CpG site #86 (GPX3 CpG sites): 74 | Sequencing results for GPX3, CpG site #101 (GPX3 CpG sites): 84 | Sequencing results for GPX3, CpG site #126 (GPX3 CpG sites): 75 | Sequencing results for GPX3, CpG site #129 (GPX3 CpG sites): 80 | Sequencing results for GPX3, CpG site #142 (GPX3 CpG sites): 97 | Sequencing results for GPX3, CpG site #146 (GPX3 CpG sites): 80 | Sequencing results for GPX3, CpG site #167 (GPX3 CpG sites): 89 | SCNN1B sequencing result (methylation) at CpG site #179 (SCNN1B CpG sites; HT29 treated): 70 | SCNN1B sequencing result (methylation) at CpG site #192 (SCNN1B CpG sites; HT29 treated): 90 | SCNN1B sequencing result (methylation) at CpG site #203 (SCNN1B CpG sites; HT29 treated): 36 | SCNN1B sequencing result (methylation) at CpG site #223 (SCNN1B CpG sites; HT29 treated): 79 | SCNN1B sequencing result (methylation) at CpG site #228 (SCNN1B CpG sites; HT29 treated): 74 | SCNN1B sequencing result (methylation) at CpG site #230 (SCNN1B CpG sites; HT29 treated): 67 | SCNN1B sequencing result (methylation) at CpG site #234 (SCNN1B CpG sites; HT29 treated): 69 | SCNN1B sequencing result (methylation) at CpG site #238 (SCNN1B CpG sites; HT29 treated): 75 | SCNN1B sequencing result (methylation) at CpG site #245 (SCNN1B CpG sites; HT29 treated): 65 | SCNN1B sequencing result (methylation) at CpG site #267 (SCNN1B CpG sites; HT29 treated): 55 | SCNN1B sequencing result (methylation) at CpG site #295 (SCNN1B CpG sites; HT29 treated): 26 | SCNN1B sequencing result (methylation) at CpG site #179 (SCNN1B CpG sites; LS123 treated): 56 | SCNN1B sequencing result (methylation) at CpG site #192 (SCNN1B CpG sites; LS123 treated): 63 | SCNN1B sequencing result (methylation) at CpG site #203 (SCNN1B CpG sites; LS123 treated): 42 | SCNN1B sequencing result (methylation) at CpG site #223 (SCNN1B CpG sites; LS123 treated): 90 | SCNN1B sequencing result (methylation) at CpG site #228 (SCNN1B CpG sites; LS123 treated): 87 | SCNN1B sequencing result (methylation) at CpG site #230 (SCNN1B CpG sites; LS123 treated): 82 | SCNN1B sequencing result (methylation) at CpG site #234 (SCNN1B CpG sites; LS123 treated): 80 | SCNN1B sequencing result (methylation) at CpG site #238 (SCNN1B CpG sites; LS123 treated): 77 | SCNN1B sequencing result (methylation) at CpG site #245 (SCNN1B CpG sites; LS123 treated): 81 | SCNN1B sequencing result (methylation) at CpG site #267 (SCNN1B CpG sites; LS123 treated): 59 | SCNN1B sequencing result (methylation) at CpG site #295 (SCNN1B CpG sites; LS123 treated): 23 | SCNN1B sequencing result (methylation) at CpG site #179 (SCNN1B CpG sites; LS174T treated): 7 | SCNN1B sequencing result (methylation) at CpG site #192 (SCNN1B CpG sites; LS174T treated): 56 | SCNN1B sequencing result (methylation) at CpG site #203 (SCNN1B CpG sites; LS174T treated): 40 | SCNN1B sequencing result (methylation) at CpG site #223 (SCNN1B CpG sites; LS174T treated): 75 | SCNN1B sequencing result (methylation) at CpG site #228 (SCNN1B CpG sites; LS174T treated): 81 | SCNN1B sequencing result (methylation) at CpG site #230 (SCNN1B CpG sites; LS174T treated): 72 | SCNN1B sequencing result (methylation) at CpG site #234 (SCNN1B CpG sites; LS174T treated): 70 | SCNN1B sequencing result (methylation) at CpG site #238 (SCNN1B CpG sites; LS174T treated): 55 | SCNN1B sequencing result (methylation) at CpG site #245 (SCNN1B CpG sites; LS174T treated): 40 | SCNN1B sequencing result (methylation) at CpG site #267 (SCNN1B CpG sites; LS174T treated): 47 | SCNN1B sequencing result (methylation) at CpG site #295 (SCNN1B CpG sites; LS174T treated): 7 | SCNN1B sequencing result (methylation) at CpG site #179 (SCNN1B CpG sites; SW480 treated): 80 | SCNN1B sequencing result (methylation) at CpG site #192 (SCNN1B CpG sites; SW480 treated): 44 | SCNN1B sequencing result (methylation) at CpG site #203 (SCNN1B CpG sites; SW480 treated): 21 | SCNN1B sequencing result (methylation) at CpG site #223 (SCNN1B CpG sites; SW480 treated): 89 | SCNN1B sequencing result (methylation) at CpG site #228 (SCNN1B CpG sites; SW480 treated): 83 | SCNN1B sequencing result (methylation) at CpG site #230 (SCNN1B CpG sites; SW480 treated): 80 | SCNN1B sequencing result (methylation) at CpG site #234 (SCNN1B CpG sites; SW480 treated): 80 | SCNN1B sequencing result (methylation) at CpG site #238 (SCNN1B CpG sites; SW480 treated): 87 | SCNN1B sequencing result (methylation) at CpG site #245 (SCNN1B CpG sites; SW480 treated): 51 | SCNN1B sequencing result (methylation) at CpG site #267 (SCNN1B CpG sites; SW480 treated): 57 | SCNN1B sequencing result (methylation) at CpG site #295 (SCNN1B CpG sites; SW480 treated): 69 | SCNN1B sequencing result (methylation) at CpG site #179 (SCNN1B CpG sites; SW620 treated): 59 | SCNN1B sequencing result (methylation) at CpG site #192 (SCNN1B CpG sites; SW620 treated): 88 | SCNN1B sequencing result (methylation) at CpG site #203 (SCNN1B CpG sites; SW620 treated): 30 | SCNN1B sequencing result (methylation) at CpG site #223 (SCNN1B CpG sites; SW620 treated): 93 | SCNN1B sequencing result (methylation) at CpG site #228 (SCNN1B CpG sites; SW620 treated): 95 | SCNN1B sequencing result (methylation) at CpG site #230 (SCNN1B CpG sites; SW620 treated): 94 | SCNN1B sequencing result (methylation) at CpG site #234 (SCNN1B CpG sites; SW620 treated): 91 | SCNN1B sequencing result (methylation) at CpG site #238 (SCNN1B CpG sites; SW620 treated): 86 | SCNN1B sequencing result (methylation) at CpG site #245 (SCNN1B CpG sites; SW620 treated): 26 | SCNN1B sequencing result (methylation) at CpG site #267 (SCNN1B CpG sites; SW620 treated): 67 | SCNN1B sequencing result (methylation) at CpG site #295 (SCNN1B CpG sites; SW620 treated): 23
